Data set [1] has as its system KB tumor xenografts (FR+). Kind of data set: Ex vivo biodistribution in nude mice bearing KB tumor xenografts. The settings on record: 120 min p.i., ± SEM.
The target in data set [2] is FR (folate receptor) on KB cells (Homo sapiens, UniProt P15328). Kind of data set: Relative binding affinity: inhibition of 3H-folate binding to cultured KB cells. As to conditions: read-out: mean IC50 (relative binding affinity, block of 3H-folic acid binding), 10 nM 3H-folate, 1 h, 37 °C.
Sequence of FR (folate receptor) on KB cells (P15328 25-257): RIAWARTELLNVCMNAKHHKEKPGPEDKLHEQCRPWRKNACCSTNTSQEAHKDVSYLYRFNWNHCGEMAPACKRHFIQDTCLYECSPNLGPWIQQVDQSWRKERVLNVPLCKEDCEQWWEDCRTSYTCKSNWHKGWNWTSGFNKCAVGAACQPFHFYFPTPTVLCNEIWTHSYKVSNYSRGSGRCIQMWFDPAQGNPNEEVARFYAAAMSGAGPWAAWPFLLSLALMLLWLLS

SMILES strings stand for the structures.

On to `[NH-][C@@H](CNC(=O)CC[C@@H](NC(=O)c1ccc(NCc2cnc3nc(N)[nH]c(=O)c3n2)cc1)C(=O)O)C(=O)[N-][C@@H](CC(=O)O)C(=O)[N-][C@@H](C[S-])C(=O)O.[O]=[Tc+4]` [^99mTc-EC20], for which, in data set [1] (Control), the “Biodistribution: Blood” value amounted to 0.3 ± 0.01 %ID/g, the “Biodistribution: Heart” value was 1.9 ± 0.1 %ID/g, the “Biodistribution: KB Tumor” value is given as 10.9 ± 0.6 %ID/g and the “Biodistribution: Kidney” value was found to be 113.0 ± 3.6 %ID/g. In addition, in data set [1] (Control), the “Biodistribution: Liver” value came to 4.1 ± 0.3 %ID/g, the “Biodistribution: Lung” value came out at 2.1 ± 0.1 %ID/g, the “Biodistribution: Muscle” value is 1.2 ± 0.04 %ID/g and the “Biodistribution: Plasma” value is 0.5 ± 0.03 %ID/g. In data set [1] (Control), the “Biodistribution: Spleen” value is on record as 0.8 ± 0.1 %ID/g, the “KB Tumor/Blood ratio” value was 41.5 ± 2.2, the “KB Tumor/Kidney ratio” value is recorded as 0.1 ± 0.01 and the “KB Tumor/Liver ratio” value was determined as 3.1 ± 0.3. Besides, in data set [1] (FA Block (100 μg folic acid)), the “Biodistribution: Blood” value stood at 0.3 ± 0.1 %ID/g, the “Biodistribution: Heart” value was found to be 0.1 ± 0.02 %ID/g, the “Biodistribution: KB Tumor” value stood at 0.9 ± 0.1 %ID/g and the “Biodistribution: Kidney” value amounted to 6.7 ± 1.6 %ID/g. For the same molecule, in data set [1] (FA Block (100 μg folic acid)), the “Biodistribution: Liver” value came to 2.5 ± 0.5 %ID/g, the “Biodistribution: Lung” value came to 0.8 ± 0.2 %ID/g, the “Biodistribution: Muscle” value is reported as 0.1 ± 0.02 %ID/g and the “Biodistribution: Plasma” value was 0.5 ± 0.1 %ID/g. In data set [1] (FA Block (100 μg folic acid)), the “Biodistribution: Spleen” value was found to be 0.5 ± 0.2 %ID/g, the “KB Tumor/Blood ratio” value turned out to be 2.9 ± 0.4, the “KB Tumor/Kidney ratio” value worked out at 0.1 ± 0.02 and the “KB Tumor/Liver ratio” value came to 0.4 ± 0.1.

As for `Nc1nc2ncc(CNc3ccc(C(=O)N[C@@H](CCC(=O)NCCOCCOCCNC(=O)CN4CCN(CC(=O)O)CCN(CC(=O)O)CC4)C(=O)O)cc3)nc2c(=O)[nH]1` [folate-NOTA], the IC50 (as a rule, the point on the concentration scale where inhibition reaches its midpoint) in data set [2] amounted to 18.7 nM.

For the origin of these results see publication PMC5343510 (Molecular pharmaceutics, 2016).
